Series [1] concerns Human immunodeficiency virus 1. Description: Antiviral activity against HIV1 3B infected in human MT4 cells assessed as protection against virus-induced cytopathogenicity after 4 days by MTT assay. In kind it is functional, organism-based. Particulars: Human immunodeficiency virus 1, 3B, MT4, 96 h. Background: Damage to the host cells serves as the signal in cytopathic effect assays.

Series [2] has as its system PC-3. Description: Cytotoxicity against human PC3 cells assessed as growth inhibition at 10 nM after 3 days by XTT assay relative to control. The series is classed as functional. Conditions: PC-3, 72 h, read-out: GI.
For the next series, the system named is Staphylococcus aureus. Description: Antibacterial activity against Staphylococcus aureus DSM 2569. The series is classed as functional.
Another series has as its system Escherichia coli. Description: Antibacterial activity against Escherichia coli DSM 1103. In kind it is functional.
In series [3] the test system is HT-29. Description: Cytotoxicity against human HT-29 cells assessed as growth inhibition at 10 nM after 3 days by XTT assay. The series is classed as functional, cell-based. (Tetrazolium dyes change colour on reduction, which living cells bring about.)
A short description of series [4]: Cytotoxicity against mock-infected human MT4 cells assessed as reduction in cell viability after 96 hrs by MTT assay. The series is classed as cell-based.
Series [5] relates to PC-3. Description: Cytotoxicity against human PC3 cells assessed as growth inhibition at 10 uM after 3 days by XTT assay relative to control. The series is classed as functional. Particulars: PC-3, 72 h, read-out: GI.
A further series relates to Enterococcus faecalis. Description: Antibacterial activity against Enterococcus faecalis DSM 2570. In kind it is functional.
Series [6] concerns Caenorhabditis elegans. Description: Antihelmintic activity against Caenorhabditis elegans Bristol N2 assessed as mortality at 10 ug/ml after 30 mins by microscopic analysis (reference value: 3 +/- 3%). The series is classed as functional, organism-based.
The subject of series [7] is HT-29. Description: Cytotoxicity against human HT-29 cells assessed as growth inhibition at 125 uM after 3 days by XTT assay relative to control. Conditions: HT-29, 72 h, read-out: GI. In kind it is functional.
The test system of series [8] is PC-3. Description: Cytotoxicity against human PC3 cells assessed as growth inhibition at 125 uM after 3 days by XTT assay relative to control. In kind it is functional. Particulars: PC-3, 72 h, read-out: GI.
Series [9] has as its system Caenorhabditis elegans. Description: Antihelmintic activity against Caenorhabditis elegans Bristol N2 assessed as mortality at 12.5 ug/ml after 30 mins by microscopic analysis. In kind it is functional, organism-based.
For series [10], the system named is Caenorhabditis elegans. Description: Antihelmintic activity against Caenorhabditis elegans Bristol N2 assessed as mortality at 100 ug/ml after 30 mins by microscopic analysis (reference value: 3 +/- 3%). The series is classed as functional.

pEC50: −log10 of the molar value. Activity calls are given as the source filed them. The rule behind the calls is not given here.

By pEC50 is commonly meant the EC50 on a negative log10 scale, so that one unit is a factor of ten. Broadly, the MIC is the least concentration at which growth counts as inhibited. Read a low MIC as a more susceptible organism. The CC50 is the concentration giving 50% cytotoxicity.

For the compound `CCC(C)C(=O)c1c(O)cc2c3c1OC1(C)CCC(C3C1)C(C)(C)O2` (configuration not stated), in series [1], the pEC50 was less than 4.00. The inhibition of growth at 0.01 µM in the series with PC-3 [2] is less than 20%. Moreover, the minimum inhibitory concentration (MIC) in the series on Staphylococcus aureus, against Escherichia coli and in the series with Enterococcus faecalis was more than 1 µg/mL each time. Further, in the series on HT-29 [3], the “growth inhibition (GI)” value was “inactive”. Moreover, the 50% cytotoxic concentration (CC50) at 96 h in series [4] is more than 100 µM. In the series with PC-3 [5], the inhibition of growth at 10 µM was less than 20%.
In the case of IVERMECTIN, the Activity in the series with Caenorhabditis elegans [6] was found to be 99%.
For the compound `CC(C)=CCCC1(C)Oc2c(c(O)cc(O)c2C(=O)C(C)C)CC1O` (configuration not stated), the pEC50 in series [1] is less than 4.08. Moreover, the inhibition of growth at 0.01 µM with PC-3 [2] was less than 20%. The MIC against Staphylococcus aureus, in the series on Escherichia coli and against Enterococcus faecalis was more than 1 µg/mL throughout. The “growth inhibition (GI)” value with HT-29 [3] is “inactive”. Moreover, the CC50 at 96 h in [4] came to 84 µM. Besides, the inhibition of growth at 10 µM in the series with PC-3 [5] was less than 20%.
For the compound `CC(C)C(=O)c1c(O)cc2c3c1OC1(C)CCC(C3C1)C(C)(C)O2` (configuration not stated), in [1], the pEC50 was less than 4.00. In the series on PC-3 [2], the inhibition of growth at 0.01 µM was less than 20%. In addition, the MIC in the series on Staphylococcus aureus, in the series with Escherichia coli and against Enterococcus faecalis was more than 1 µg/mL each time. The “growth inhibition (GI)” value in the series with HT-29 [3] was “inactive”. The half-maximal cytotoxic concentration (CC50) at 96 h in series [4] is more than 100 µM. Besides, the inhibition of growth at 10 µM in the series on PC-3 [5] is 20%.
For the compound `C[C@@H]1CC[C@@]2(OC1)O[C@H]1[C@@H](O)[C@H]3[C@@H]4CC[C@H]5C[C@@H](O[C@@H]6O[C@H](CO)[C@H](O[C@@H]7O[C@H](CO)C(O)[C@H](O[C@@H]8OC[C@@H](O)[C@H](O)[C@H]8O)[C@H]7O[C@@H]7O[C@H](CO)[C@H](O)[C@H](O[C@@H]8O[C@H](CO)[C@@H](O)[C@H](O)[C@H]8O)[C@H]7O)[C@H](O)[C@H]6O)[C@H](O)C[C@]5(C)[C@H]4CC[C@]3(C)[C@H]1[C@@H]2C` (some centres not stated) [DIGITONIN], the inhibition of growth at 125 µM in the series on HT-29 [7] and in the series on PC-3 [8] was 100% throughout.
As to `CC(C)C(=O)c1c(O)cc(O)c2c1O[C@]1(C)CC[C@@H](O)C(C)(C)[C@H]1C2` (relative stereo), the result in the series with Caenorhabditis elegans [9] was inactive. The pEC50 in series [1] was less than 4.39. In addition, the inhibition of growth at 0.01 µM in the series with PC-3 [2] was less than 20%. Besides, the minimum inhibitory concentration (MIC) against Staphylococcus aureus, in the series with Escherichia coli and with Enterococcus faecalis was more than 1 µg/mL in each case. Moreover, the Activity in the series on Caenorhabditis elegans [10] was found to be 0.7%. Moreover, the “growth inhibition (GI)” value in the series with HT-29 [3] was “inactive”. Besides, the CC50 at 96 h in series [4] was determined as 41 µM. Moreover, in the series with PC-3 [5], the inhibition of growth at 10 µM was less than 20%.
With `CC(C)=CCC/C(C)=C/Cc1c(O)cc(O)c(C(=O)C(C)C)c1O`, in the series on Caenorhabditis elegans [9], the outcome was inactive. Moreover, the pEC50 in series [1] is less than 4.00. Further, the inhibition of growth at 0.01 µM in the series with PC-3 [2] was less than 20%. For the same compound, the MIC against Staphylococcus aureus, in the series with Escherichia coli and in the series with Enterococcus faecalis was more than 1 µg/mL each time. The Activity in the series with Caenorhabditis elegans [10] is given as 0.7%. In addition, the “growth inhibition (GI)” value with HT-29 [3] was “inactive”. For the same compound, the CC50 at 96 h in [4] is more than 100 µM. In addition, the inhibition of growth at 10 µM in the series with PC-3 [5] is less than 20%.
Regarding `CC(C)=CCC/C(C)=C/Cc1c(O)cc(O)c(C(=O)c2ccccc2)c1O`, the result with Caenorhabditis elegans [9] was inactive. Further, in series [1], the negative logarithm of the EC50 (pEC50) is less than 4.16. Also, the inhibition of growth at 0.01 µM in the series with PC-3 [2] is less than 20%. Also, the MIC against Staphylococcus aureus, against Escherichia coli and in the series on Enterococcus faecalis was more than 1 µg/mL in each case. Moreover, the Activity in the series with Caenorhabditis elegans [10] stood at 0.7%. Besides, the “growth inhibition (GI)” value in the series on HT-29 [3] is “inactive”. Further, the CC50 at 96 h in [4] amounted to 69 µM. The inhibition of growth at 10 µM with PC-3 [5] is less than 20%.
In the case of `CCC(C)C(=O)c1c(O)cc(O)c(C/C=C(\C)CCC=C(C)C)c1O` (configuration not stated), the result in the series with Caenorhabditis elegans [9] was inactive. The pEC50 in series [1] was less than 4.57. The inhibition of growth at 0.01 µM in the series with PC-3 [2] is less than 20%. The minimal inhibitory concentration (MIC) against Staphylococcus aureus, with Escherichia coli and in the series with Enterococcus faecalis was more than 1 µg/mL each time. Besides, the Activity in the series on Caenorhabditis elegans [10] is 37%. For the same compound, the “growth inhibition (GI)” value with HT-29 [3] was “inactive”. Moreover, in series [4], the cytotoxic concentration (CC50) at 96 h is 26.7 µM. Besides, in the series on PC-3 [5], the inhibition of growth at 10 µM amounted to 20%.
Take `CC(C)C(=O)c1c(O)cc2c3c1OC(C)(C)C1CCC(C)(CC31)O2` (configuration not stated): the CC50 at 96 h in [4] stood at 18.7 µM.
On to `c1ccc2[nH]c(-c3cscn3)nc2c1` [THIABENDAZOLE], for which, in the series with Caenorhabditis elegans [10], the Activity was 19%.
Consider `CCC(C)C(=O)c1c(O)cc2c3c1OC(C)(C)C1CCC(C)(CC31)O2` (configuration not stated) [EMPETRIFRANZINAN C], for which, in [1], the negative logarithm of the EC50 (pEC50) is less than 4.35. Moreover, the inhibition of growth at 0.01 µM with PC-3 [2] is less than 20%. In addition, the minimal inhibitory concentration (MIC) in the series with Staphylococcus aureus, in the series with Escherichia coli and against Enterococcus faecalis was more than 1 µg/mL each time. For the same compound, the “growth inhibition (GI)” value with HT-29 [3] was “inactive”. Besides, the cytotoxic concentration (CC50) at 96 h in series [4] worked out at 45 µM. Moreover, the inhibition of growth at 10 µM with PC-3 [5] was 20%.
On to `CCC(C)C(=O)c1c(O)cc(O)c2c1O[C@](C)(CCC=C(C)C)[C@@H](O)C2` (some centres not stated) [EMPETRIKARINOL B], for which the result in the series on Caenorhabditis elegans [9] was inactive. Besides, in series [1], the pEC50 is less than 4.35. In addition, the inhibition of growth at 0.01 µM in the series with PC-3 [2] is less than 20%. For the same compound, the MIC against Staphylococcus aureus, against Escherichia coli and against Enterococcus faecalis was more than 1 µg/mL each time. In addition, the Activity with Caenorhabditis elegans [10] is recorded as 0.7%. Besides, the “growth inhibition (GI)” value in the series with HT-29 [3] was “inactive”. For the same compound, in series [4], the CC50 at 96 h came out at 45 µM. Besides, the inhibition of growth at 10 µM in the series with PC-3 [5] is less than 20%.

The values are drawn from ChEMBL document CHEMBL3611984, “Isolation and anticancer, anthelminthic, and antiviral (HIV) activity of acylphloroglucinols, and regioselective synthesis of empetrifranzinans from Hypericum roeperianum” (Bioorg Med Chem, 2015).
